Measurements reported in US10178866B2, “N-halamine containing fibrous compositions and uses thereof” (priority 2014, dated 2019).
Converted amounts (≈) assume the structure as drawn.

Key:
[1] = tested on: Staphylococcus aureus ATCC 6538; assay: sandwich contact test, polypropylene nonwoven face-piece material; type: cell-based; settings: inoculum 6.26 log
Method: (§1) Compound I (1-chloro-2,2,5,5-tetramethyl-imidazolindinone) at 1 wt %) was dissolved in ethyl alcohol solution at room temperature, and then 300 cm^2 pieces of polypropylene nonwoven fabrics were soaked in the solution for 10 minutes. The fabrics were then padded through a laboratory wringer (Birch Brothers Southern, Waxhaw, N.C., U.S.A.) at low pressure settings. This procedure was followed by drying the fabrics at room temperature for 24 hours. The control fabrics were untreated 22 g/m^2 and 50 g/m^2 polypropylene nonwovens.
(§2) Two types of tests were conducted in order to determine the biocidal efficacy of the face mask embodiments. Staphylococcus aureus (S. aureus, ATCC 6538) was used as a Gram-positive bacterium and Escherichia coli(E. coli O157:H7, ATCC 43895) was used as a Gram-negative bacterium in order to challenge the treated (impregnated with compound I) and non-treated (control) fabrics.
(§3) In the first method, a “sandwich test” was used (see Worley et al., “Novel N-halamine Siloxane Monomers and Polymers for Preparing Biocidal Coatings,” Surf Coat. Int., Part B, 2005; 88:93). In this procedure, bacteria were suspended in 100 μM phosphate buffer (pH 7) to produce a suspension of known concentration of bacteria (colony forming units, CFU/mL). Then, an aliquot of 25 μL of this suspension was placed in the center of a 2.54 cm square swatch, and a second identical swatch was placed on top. Both swatches were covered by a sterile weight to ensure sufficient contact with the bacteria. After predetermined contact times, samples were quenched by 5.0 mL of sterile 0.02 N sodium thiosulfate solution to neutralize the oxidative chlorine and thus terminate the disinfection action. Samples were vortexed for 2 minutes, and then serial dilutions were prepared using pH 7, 100 μM phosphate buffer and plated on Trypticase soy agar plates. After incubating the plates at 37° C. for 24 hours, bacterial colonies were counted for the biocidal efficacy analysis. For each contact time a single fabric swatch sandwich was vortexed in a quenching solution to wash the bacteria into a suspension which was immediately plated into duplicate serial dilutions followed by incubation and counting the viable colonies of bacteria. All experiments were performed at least twice (on different days) using different bacterial inocula.
(§4) Antimicrobial efficacy of the mask materials was analyzed by the sandwich contact test method. The antimicrobial efficacies of the treated (impregnated with compound I) and non-treated (control) swatches were evaluated by challenging both types of fabrics against S. aureus and E. coli O157:H7 where the bacteria inoculum population was 1.80×10^6 CFU and 1.27×10^6 CFU, respectively. In Table 2, antimicrobial results are summarized at different contact time intervals.

[2] = tested on: Escherichia coli O157:H7 ATCC 43895; assay: as above; type: cell-based; settings: inoculum 6.10 log
Method: as §1, §2, §3, §4

[3] = hydrolysis equilibrium / dissociation of compound I to free chlorine; type: physicochemical
[4] = tested on: Staphylococcus aureus ATCC 6538; assay: sandwich test, wet wipes; type: cell-based; settings: contact time 1 min, inoculum 6.35
Method: In the first test, CVS brand commercial wet wipes were first dried at 45° C. for 1 hour before impregnation with solutions of compound I. Different concentrations (wt %) of compound I were prepared in ethyl alcohol, and the wipes were soaked in the solutions for 5 minutes. After soaking in the solutions, each wipe was mounted between two filter papers, and a weight of 290 grams was placed uniformly over the stack. At the end of a 30 second period, the wet wipes were placed in closed vials to prevent further loss of solvent.
For antibacterial testing, CVS brand commercial wipes were used as received as controls and wipes impregnated with compound I at a concentration of 1.0 wt % in ethyl alcohol were prepared as described above. […] After the plates were incubated at 37° C. for 24 hours, viable bacterial colonies were counted for the biocidal efficacy analysis.

solubility = type: physicochemical; settings: 22° C.
Excerpt: The precursor 2,2,5,5-tetramethyl-4-imidazolidinone can be prepared according to the method outlined in Tsao or in Worley based upon oxidation of the corresponding thione with hydrogen peroxide in basic solution. The thione can be prepared by the method of Christian (see “4-imidazolidinethiones,” J. Org. Chem., 1957; 22:396), which entails reaction of sodium cyanide, ammonium chloride, ammonium sulfide, and acetone in aqueous solution. […] Compound I in its pure form contains 20.1 percent by weight oxidative chlorine. […] However, the compound is much more soluble in ethyl or isopropyl alcohol, such that a solution greater than 5000 mg/L oxidative chlorine can easily be obtained.

[5] = 22 g/m^2 fabric, Cl^+ % = 0.52, contact time 5 min
[6] = 22 g/m^2 fabric, Cl^+ % = 0.52, contact time 10 min
[7] = 22 g/m^2 fabric, Cl^+ % = 0.52, contact time 15 min
[8] = 22 g/m^2 fabric, Cl^+ % = 0.52, contact time 30 min
[9] = 50 g/m^2 fabric, Cl^+ % = 0.52, contact time 5 min
[10] = 50 g/m^2 fabric, Cl^+ % = 0.52, contact time 10 min
[11] = 50 g/m^2 fabric, Cl^+ % = 0.52, contact time 15 min
[12] = 50 g/m^2 fabric, Cl^+ % = 0.52, contact time 30 min

CC1(C)NC(=O)C(C)(C)N1Cl [Compound I, 1-chloro-2,2,5,5-tetramethyl-4-imidazolidinone]
Bacterial reduction (log) S. aureus [1, 5]: 4.13 log
Bacterial reduction (log) S. aureus [1, 6]: 6.26 log
Bacterial reduction (log) S. aureus [1, 7]: 6.26 log
Bacterial reduction (log) S. aureus [1, 8]: 6.26 log
Bacterial reduction (log) S. aureus [1, 9]: 6.26 log
Bacterial reduction (log) S. aureus [1, 10]: 6.26 log
Bacterial reduction (log) S. aureus [1, 11]: 6.26 log
Bacterial reduction (log) S. aureus [1, 12]: 6.26 log
Bacterial reduction (log) E. coli [2, 5]: 3.68 log
Bacterial reduction (log) E. coli [2, 6]: 6.10 log
Bacterial reduction (log) E. coli [2, 7]: 6.10 log
Bacterial reduction (log) E. coli [2, 8]: 6.10 log
Bacterial reduction (log) E. coli [2, 9]: 3.80 log
Bacterial reduction (log) E. coli [2, 10]: 6.10 log
Bacterial reduction (log) E. coli [2, 11]: 6.10 log
Bacterial reduction (log) E. coli [2, 12]: 6.10 log
dissociation constant (chlorine release) [3]: lower than 10^−11
hydrolysis equilibrium constant to produce 2,2,5,5-tetramethyl-4-imidazolidinone and free chlorine (HOCl) ([3]; ambient temperature): lower than 10^−11
Bacterial Reduction (logs) S. aureus [4]: 6.35 logs
solubility in water (solubility): 1930 µg/mL (≈ 10.9 mM)
weight percent of oxidative chlorine under saturated conditions (solubility; water): 0.0388 weight percent
